Data as given in PubChem BioAssay AID743076.

System: P. falciparum blood stage, IPP rescue, flow cytometry 72 h
Assay: apicoplast-targeting antimalarials identified by IPP supplementation – P. falciparum blood stage, mechanism study for antimalarial apicoplast targeting (AID 743076)
Settings: at 5 µM; active compounds read high

Compound `O=C(O)C1Cc2c([nH]c3ccccc23)C(c2ccc(Cl)cc2Cl)N1` (stereo unspecified) has a parasitemia ratio IPP rescue/non-rescue of 6.32.
